Series [1] addresses rat mGlu5 (Rattus norvegicus, UniProt P31424). The series can be described thus: calcium fluorescence. Format: cell-based. The note with it: for less potent than 10e: potentiation EC50 relative to 10e.
For series [2], the target named is mGlu5 (Rattus norvegicus, UniProt P31424). The series can be described thus: radioligand binding with [3H]3-methoxy-PEPy. The settings on record: at highest concentration, 30 μM; partial and incomplete; data not shown.
The subject of series [3] is open field locomotor activity. Put plainly: open field locomotor activity, compound dosed alone. Format: in vivo, rat. The settings on record: dosed alone at 56.6 mg/kg.
Series [4] is described as follows: transcellular permeability. The settings on record: >20 × 10^-6 cm/sec is preferred for CNS targets.
The nature of series [5]: kinetic aqueous solubility screen. The note with it: aqueous medium.
Series [6] in a line: stability in rat liver microsomes. The note with it: after 60 min.
A short description of series [7]: stability in human liver microsomes. The settings on record: after 60 min.

“Also recorded” adds a separate entry of the source.

In general, solubility (kinetic) refers to solubility judged after dilution from a stock solution rather than from solid. The term EC50 denotes the concentration at which the effect is half-maximal.

Sequence of rat mGlu5 (P31424 21-1203): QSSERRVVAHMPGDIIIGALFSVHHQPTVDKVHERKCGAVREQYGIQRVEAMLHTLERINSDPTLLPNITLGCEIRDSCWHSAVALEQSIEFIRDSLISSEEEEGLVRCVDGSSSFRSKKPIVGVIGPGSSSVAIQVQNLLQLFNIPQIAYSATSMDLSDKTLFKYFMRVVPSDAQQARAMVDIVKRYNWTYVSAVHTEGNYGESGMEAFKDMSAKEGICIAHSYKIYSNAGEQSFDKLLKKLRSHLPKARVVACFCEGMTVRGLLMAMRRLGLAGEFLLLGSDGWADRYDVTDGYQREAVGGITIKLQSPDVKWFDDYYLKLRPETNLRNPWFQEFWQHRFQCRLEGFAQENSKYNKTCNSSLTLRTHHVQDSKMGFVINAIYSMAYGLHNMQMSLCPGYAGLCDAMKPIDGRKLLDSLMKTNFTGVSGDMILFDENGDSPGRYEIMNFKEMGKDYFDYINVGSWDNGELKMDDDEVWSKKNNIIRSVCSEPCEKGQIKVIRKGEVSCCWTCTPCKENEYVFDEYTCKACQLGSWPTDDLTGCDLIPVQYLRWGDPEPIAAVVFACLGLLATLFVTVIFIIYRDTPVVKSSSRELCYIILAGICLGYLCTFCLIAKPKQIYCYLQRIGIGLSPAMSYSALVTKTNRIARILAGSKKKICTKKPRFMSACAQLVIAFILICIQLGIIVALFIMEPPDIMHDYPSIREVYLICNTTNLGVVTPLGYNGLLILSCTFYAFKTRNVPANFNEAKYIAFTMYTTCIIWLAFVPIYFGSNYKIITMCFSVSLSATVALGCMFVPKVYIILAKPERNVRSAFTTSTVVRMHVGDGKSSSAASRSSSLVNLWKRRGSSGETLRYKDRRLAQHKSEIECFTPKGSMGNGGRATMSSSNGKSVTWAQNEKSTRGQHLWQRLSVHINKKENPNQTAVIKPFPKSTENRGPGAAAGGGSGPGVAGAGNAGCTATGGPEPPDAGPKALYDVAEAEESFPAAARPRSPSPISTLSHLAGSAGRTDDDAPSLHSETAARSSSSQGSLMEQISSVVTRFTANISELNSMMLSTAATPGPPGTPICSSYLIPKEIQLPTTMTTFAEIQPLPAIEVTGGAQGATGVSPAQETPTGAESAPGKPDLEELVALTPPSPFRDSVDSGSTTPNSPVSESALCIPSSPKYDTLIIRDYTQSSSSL
Sequence of mGlu5 (P31424 21-1203): as above

As for `N#Cc1ccccc1N1CCN(C(=O)COCc2ccccc2)CC1` [10e], the “concentration at which compound alone slightly activates mGlu5” value in series [1] (CRC in absence of glutamate) is “above 30 μM”. Besides, the “mGlu5 agonism of compound alone” value in series [1] (compound alone, no glutamate, up to 10 μM) was “no inherent mGlu5 agonism; also recorded: no effect”. In addition, the “potency enhancement vs. lead 8” value in series [1] (potentiator of the glutamate EC20) is on record as greater than 3 fold. The “displacement of [3H]3-methoxy-PEPy radioligand” value in series [2] was “ca. 50%”. Besides, in series [3], the “sedation / abnormal behavior in open field locomotor activity” value was “no sedation or abnormal behavior; also recorded: without causing sedation”. Also, the transcellular permeability result in series [4] is “acceptable”. The compound further registered a kinetic solubility in series [5] greater than 30 µg/mL. In addition, the parent compound remaining result in series [6] and in series [7] was “less than 5%” throughout.
With `COC(=O)c1ccccc1N1CCN(C(=O)COCc2ccccc2)CC1` [10f], the “less potent than 10e” value in series [1] is reported as greater than 5 fold.
Same read-out and setting: then `COc1ccccc1N1CCN(C(=O)COCc2ccccc2)CC1` [10c], with greater than 5 fold.
Consider `O=C(COCc1ccccc1)N1CCN(c2ncccn2)CC1` [10h], for which the EC50 in series [1] was greater than 10 µM.
